Reference: publication PMC11760092, “Pretreatment with serine protease inhibitors impairs Leishmania amazonensis survival on macrophages” (Parasites & Vectors, 2025)

Key:
[1] = system: peritoneal macrophages from BALB/c mice; assay: Cytotoxicity assay (MTT); assay type: cell-based; details: 72 h of incubation; MTT; interval in brackets
Method: To determinate the toxicity of the inhibitors on mammalian cells, peritoneal macrophages from BALB/c mice, obtained by peritoneal lavage, in concentration of 2 × 10^6 macrophages/mL, were adhered in 96-well culture plates overnight at 37 °C with 5% CO2. The inhibitors were then added in different concentrations and incubated for 72 h at 37 °C and 5% CO2. Cell viability was also assessed by the MTT method. Cytotoxic concentration of 50% of macrophages (CC50) values were calculated using GraPadPrism 8 software. Three independent experiments in triplicate were performed.

[2] = system: Leishmania amazonensis-WT promastigotes; assay: Antipromastigote assay (MTT); assay type: cell-based; details: for IC50: 72 h of incubation, interval in brackets, read-out: Antileishmanial effect in Leishmania amazonensis IC50 Promastigote
Method: Leishmania amazonensis–WT promastigotes, in the logarithmic phase of growth, were transferred to 96-well culture plates (final concentration 2 × 10^6 cells/mL) and exposed to different concentrations of inhbitors during 72 h at 25 °C. The cell viability was evaluated by the 3-(4,5-dimethylthiazol-2-yl)-2,5 diphenyltetrazolium bromide (MTT) method (obtained from Sigma-Aldrich). The inhibitory concentration of 50% of parasite growth (IC50) values were calculated using GraphPad Prism 8 software […]. Three independent experiments in triplicate were performed. Amphotericin B (Cristália, São Paulo, SP, Brazil) was used as a reference drug.

[3] = system: L. amazonensis (RFP) amastigotes; assay: Antiamastigote assay (RFP fluorescence, infected peritoneal macrophages); assay type: cell-based; details: 72 h of incubation; interval in brackets; read-out: Antileishmanial effect in Leishmania amazonensis IC50 Amastigote
Method: Peritoneal macrophages from BALB/c mice were obtained by peritoneal lavage and distributed in 24-well plates at 2 × 10^6 cells/mL in RPMI medium (Cultilab) containing 10% FBS and a 0.5% penicillin and streptomycin solution (complete RPMI). The plates were incubated for 1 h at 37 °C and 5% CO2, washed with phosphate-buffered saline (PBS), and then reincubated in complete RPMI medium overnight. The cells were washed again with PBS and infected with stationary growth phase L. amazonensis (RFP) promastigotes at a 10:1 ratio for 4 h at 33 °C. The plates were washed with PBS and the inhibitors were added at different concentrations and incubated for 72 h. After this time, each well was scraped to remove attached cells and the reading was taken with a spectrofluorimeter (FLx800, BioTek Instruments, Winooski, VT, USA) at 530 nm and 590 nm of excitation and emission, respectively. […] All assays were performed in triplicate and repeated three times. Results were calculated as the percentage of amastigote survival compared with the nontreated control group, and IC50 values were determined using GraphPad Prism 8 software.

[4] = system: Leishmania amazonensis-RFP promastigotes; assay: Viability of promastigotes after 1 h of treatment with inhibitors; assay type: cell-based; details: 1 h treatment, washed; 0 h, 24 h, 48 h and 72 h of incubation
Method: Leishmania amazonensis-RFP promastigotes were treated with different concentrations of inhibitors during 1 h at 25 °C and were washed with PBS. Then, these cells had their viability determined by fluorescence analysis using a spectrofluorimeter (time = 0 h) and were also reincubated in complete RPMI medium for subsequent analysis of cell viability after 24 h, 48 h, and 72 h (times = 24 h, 48 h, and 72 h) by fluorescence analysis.

[5] = system: L. amazonensis in peritoneal macrophages; assay: Promastigote pretreatment and infection of peritoneal macrophages; assay type: cell-based, Leishmania amazonensis; details: for entry of promastigotes into macrophages: promastigotes pretreated 1 h, 0 h after 4 h interaction
Method: Leishmania amazonensis-RFP promastigotes were pretreated with different concentrations of inhbitors during 1 h at 25 °C. The cells were washed with PBS and used to infect peritoneal macrophages from BALB/c mice (10:1 ratio), not pretreated or pretreated with 0.5 ng/mL IFN-γ overnight, in 24-well plates. After 4 h of interaction, the plates were washed with PBS and (1) scraped to remove attached cells and read using a spectrofluorimeter (time = 0 h) or (2) incubated at 33 °C with 5% CO2 for 24 h, 48 h, and 72 h for later scraping and reading (times = 24 h, 48 h, and 72 h). Three experiments were performed, each one with three replicates.
The same experiment was repeated, but using 13 mm glass coverslips in 24-well plates. The fixation with ethanol and staining with Giemsa were performed. Subsequently, the slides were examined in an optical microscope (Olympus BX53, Shinjuku, Tokyo, Japan) and photographed (Olympus DP73, Shinjuku, Tokyo, Japan).

[6] = system: L. amazonensis promastigotes; design: method as in PMID 17726617; details: 100 µM; cited from earlier work
[7] = system: L. donovani serine proteases; design: method as in PMID 26040107; details: concentration not given; cited from earlier work
[8] = system: L. donovani promastigotes; design: method as in PMID 26040107; details: concentration not given; cited from earlier work
[9] = system: L. amazonensis serine proteases; design: method as in PMID 25583728; details: cited from earlier work
[10] = system: L. amazonensis promastigotes and amastigotes; details: cited from earlier work
L. amazonensis = details: mice infected with L. amazonensis; cited from earlier work

Compound	CC50 [1] [µM]	IC50 [2] [µM]	IC50 [3] [µM]	viability of promastigotes after 1 h of treatment, compared with the control [4]	entry of promastigotes into macrophages [5]	permanence and survival of amastigotes within host cells ([5]; promastigotes pretreated 1 h with 200 µM or 6.25 µM, up to 72 h)	inhibition of the parasite's viability ([2]; promastigotes, 6.25 µM)	survival of parasites within macrophages ([5]; promastigotes pretreated 1 h with 100 µM, 48 h and 72 h of infection)	viability of L. amazonensis promastigotes [6]	inhibition of the proteolytic activity [7] [%]	cell viability of L. donovani promastigotes (reduction) [8]	inhibition of L. amazonensis serine proteases [9]	effect on promastigotes and amastigotes of L. amazonensis [10]	lesion size (L. amazonensis)
O=S(=O)(F)Cc1ccccc1 [PMSF]	269	> 200	> 200	did not change the viability	did not change the entry	did not alter the permanence and survival	–	–	–	–	–	–	–	–
Cc1ccc(S(=O)(=O)N[C@@H](CCCCN)C(=O)CCl)cc1 [TLCK]	104	52.5	140	did not change the viability	occurred similarly to the control	–	around 10%	slightly reduced	did not reduce promastigote viability	18	only did so after 15 h and 20 h	–	–	–
epoxy-α-lapachone	–	–	–	–	–	–	–	–	–	–	–	inhibited L. amazonensis serine proteases	effective against promastigotes and amastigotes	reduction of the lesion size
